Counter-ions that a name gives are not always drawn.
Target: T1, DP receptor (Homo sapiens, UniProt Q13258)
T1 construct: the human cell line LS174T, which expresses the endogenous DP receptor; endogenous in cells; host or cells: LS174T human cell line
T1 sequence (Q13258 1-359): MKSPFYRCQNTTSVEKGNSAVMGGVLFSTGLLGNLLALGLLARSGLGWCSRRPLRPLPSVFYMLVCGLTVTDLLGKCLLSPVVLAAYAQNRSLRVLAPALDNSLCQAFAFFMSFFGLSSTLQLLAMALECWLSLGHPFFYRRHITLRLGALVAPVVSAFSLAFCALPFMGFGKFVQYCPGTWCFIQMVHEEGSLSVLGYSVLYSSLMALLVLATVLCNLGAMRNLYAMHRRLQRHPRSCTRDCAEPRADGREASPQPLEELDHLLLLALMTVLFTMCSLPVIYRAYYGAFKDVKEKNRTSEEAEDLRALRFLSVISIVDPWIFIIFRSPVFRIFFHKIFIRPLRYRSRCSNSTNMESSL
Test: SPA cAMP assay in human LS174 T cells (human DP functional assay)
Format: cell-based
Conditions: concentration of the compound that produces 50% inhibition in the SPA cAMP assay in human LS174 T cells; PGD2 15 nM final concentration
Description: As used in the examples and preparations that follow, as well as the rest of the application, the terms used therein shall have the meanings indicated: “kg” refers to kilograms, “g” refers to grams, “mg” refers to milligrams, “μg” refers to micrograms, “mol” refers to moles, “mmol” refers to millimoles, “M” refers to molar, “mM” refers to millimolar, “μM” refers to micromolar, “nM” refers to nanomolar, “L” refers to liters, “mL” or “ml” refers to milliliters, “μL” refers to microliters, “° C.” refers to degrees Celsius, “mp” or “m.p.” refers to melting point, “bp” or “b.p.” refers to boiling point, “mm of Hg” refers to pressure in millimeters of mercury, “cm” refers to centimeters, “nm” refers to nanometers, “abs.” refers to absolute, “conc.” refers to concentrated, “c” refers to concentration in g/mL, “rt” refers to room temperature, “TLC” refers to thin layer chromatography, “HPLC” refers to high performance liquid chromatography, “i.p.” refers to intraperitoneally, “i.v.” refers to intravenously, “s”=singlet, “d”=doublet; “t”=triplet; “q”=quartet; “m”=multiplet, “dd”=doublet of doublets; “br”=broad, “LC”=liquid chromatograph, “MS”=mass spectrograph, “ESI/MS”=electrospray ionization/mass spectrograph, “RT”=retention time, “M”=molecular ion, “PSI”=pounds per square inch, “DMSO”=dimethyl sulfoxide, “DMF”=N,N-dimethylformamide, “CDI”=1,1′-carbonyldiimidazole, “DCM” or “CH2Cl2”=dichloromethane, “HCl”=hydrochloric acid, “SPA”=Scintillation Proximity Assay, “ATTC”=American Type Culture Collection, “FBS”=Foetal Bovine Serum, “MEM”=Minimal Essential Medium, “CPM”=Counts Per Minute, “EtOAc”=ethyl acetate, “PBS”=Phosphate Buffered Saline, “TMD”=transmembrane domain, “IBMX”=3-isobutyl-1-methylxanthine, “cAMP”=cyclic adenosine monophosphate, “IUPAC”=International Union of Pure and Applied Chemistry, “MHz”=megahertz, “PEG”=polyethylene glycol, “MeOH”=methanol, “N”=normality, “THF”=tetrahydrofuran, “h”=hours, “min”=minute(s), “MeNH2”=methyl amine, “N2”=nitrogen gas, “O.D.”=outer diameter, “MeCN” or “CH3CN”=acetonitrile, “Et2O”=ethyl ether, “Prep LC”=preparatory “flash” liquid chromatography, “SPE”=solid phase extraction, “K2CO3”=potassium carbonate, “Na2CO3”=sodium carbonate, “pmol”=picomolar, “heptane”=n-heptane, “HMBA-AM” resin=4-hydroxymethylbenzoic acid amino methyl resin, “PdCl2(dppf)2”=1,1′-bis(diphenylphosphino)ferrocene-palladium (II) dichloride DCM complex, “˜”=approximately, and “IC50”=concentration of the compound that produces 50% inhibition in the SPA cAMP assay in human LS174 T cells.
The inhibitory effects of the compounds according to the invention are assessed in a human DP functional assay. A cAMP assay is employed using the human cell line LS174T, which expresses the endogenous DP receptor. The protocol is similar to that described previously (Wright D H, Ford-Hutchinson A W, Chadee K, Metters K M, The human prostanoid DP receptor stimulates mucin secretion in LS174T cells, Br J Pharmacol. 131(8):1537-45 (2000)).
Protocol for SPA cAMP Assay in Human LS174 T Cells
Add 50 μL of […] IBMX into 100 mL PBS to make a final concentration of 100 μM and sonicate at 30° C. for 20 minutes.
Dissolve 1 mg PGD2 (FW, 352.5) in 284 μL DMSO to make 10 mM stock solution and store at […]. Before each assay, it is freshly prepared. Add 3 μL of 10 mM stock solution to 20 mL DMSO, mix it thoroughly, and transfer 10 mL to 40 mL PBS.
Compound dilution is carried out in Biomex 2000 (Beckman) using Method 1_cAMP DP 11 points.
5 μL of each compound from the 10 mM stock compound plates is transferred to the wells of a 96-well plate respectively as below.
Fill the plate with 45 μL of DMSO except column 7 is filled with 28 μL DMSO. Pipette column 1 thoroughly, and transfer 12 μL into column 7 parallel. Perform 1:10 serial dilution from column 1 to column 6 and from column 7 to column 11 by transfer 5 μL to 45 μL DMSO to make following concentrations:
Fill a new 96-well plate with 247.5 μL of compound dilution buffer. […]

IC50 [nM]	Compound
26	COc1nc(NCCc2ccc(Cl)cc2Cl)cc(N2CCC(NC(C)=O)CC2)n1 [Example 5(b), N-(1-{6-[2-(2,4-Dichloro-phenyl)-ethylamino]-2-methoxy-pyrimidin-4-yl}-piperidin-4-yl)-acetamide]
4.4	COc1nc(NCCc2ccc(Cl)cc2Cl)cc(N2CCCC(C(=O)Nc3nnn[nH]3)C2)n1 (stereo not shown) [Example 11(e), 1-{6-[2-(2,4-Dichloro-phenyl)-ethylamino]-2-methoxy-pyrimidin-4-yl}-piperidine-3-carboxylic acid (1H-tetrazol-5-yl)-amide]
2	COc1nc(NCCc2ccc(Cl)cc2Cl)cc(-c2cccc(C(C)(C)C(=O)NS(=O)(=O)C(C)(C)C)c2)n1 [Example 7(a), 2-Methyl-propane-2-sulfonic acid [2-(3-{6-[2-(2,4-dichloro-phenyl)-ethylamino]-2-methoxy-pyrimidin-4-yl}-phenyl)-2-methyl-propionyl]-amide]
1	COc1nc(NCCc2ccc(Cl)cc2Cl)cc(N2CCCC(C(=O)NS(C)(=O)=O)C2)n1 (stereo not shown) [Example 11(a), N-(1-{6-[2-(2,4-Dichloro-phenyl)-ethylamino]-2-methoxy-pyrimidin-4-yl}-piperidine-3-carbonyl)-methanesulfonamide]
2	COc1nc(NCCc2ccc(OC(F)(F)F)cc2)cc(N2CCCC(C(C)(C)C(=O)O)C2)n1 (stereo not shown) [Example 2, 2-(1-{2-Methoxy-6-[2-(4-trifluoromethoxy-phenyl)-ethylamino]-pyrimidin-4-yl}-piperidin-3-yl)-2-methyl-propionic acid]
2	COc1nc(NCCc2ccc(Cl)cc2Cl)cc(-c2ccc3c(c2)CC(C(=O)O)O3)n1 (stereo not shown) [Example 13, 5-{6-[2-(2,4-Dichloro-phenyl)-ethylamino]-2-methoxy-pyrimidin-4-yl}-2,3-dihydro-benzofuran-2-carboxylic acid hydrochloride]
9	COc1nc(NCCc2ccc(Cl)cc2Cl)cc(N2CCC(C(=O)O)C2)n1 (stereo not shown) [Example 1]
985	COc1nc(NCCc2ccc(Cl)cc2Cl)cc(N2CCCC(N)C2)n1 (stereo not shown) [Example 4, [6-(3-Amino-piperidin-1-yl)-2-methoxy-pyrimidin-4-yl]-[2-(2,4-dichloro-phenyl)-ethyl]-amine]
9	COc1nc(NCCc2ccc(OC(F)(F)F)cc2)cc(N2CCCC(C(=O)O)C2)n1 (stereo not shown) [Example 9, 1-{2-Methoxy-6-[2-(4-trifluoromethoxy-phenyl)-ethylamino]-pyrimidin-4-yl}-piperidine-3-carboxylic acid]
14	COc1nc(NCCc2ccc(Cl)cc2Cl)cc(N2CCCC(C(=O)NS(=O)(=O)N(C)C)C2)n1 (stereo not shown) [Example 11(h), N,N-Dimethylamide-2-sulfonic acid 1-{6-[2-(2,4-dichloro-phenyl)-ethylamino]-2-methoxy-pyrimidin-4-yl}-piperidine-3-carboxamide]
18	COc1nc(NCCc2ccc(Cl)cc2Cl)cc(N2CCCC(C(=O)NS(=O)(=O)C(F)(F)F)C2)n1 (stereo not shown) [Example 11(d), N-(1-{6-[2-(2,4-Dichloro-phenyl)-ethylamino]-2-methoxy-pyrimidin-4-yl}-piperidine-3-carbonyl)-C,C,C-trifluoro-methanesulfonamide]
2	COc1nc(NCCc2ccc(OC(F)(F)F)cc2)cc(-c2ccc(C(=O)O)s2)n1 [Example 12, 5-{2-Methoxy-6-[2-(4-trifluoromethoxy-phenyl)-ethylamino]-pyrimidin-4-yl}-thiophene-2-carboxylic acid]
22	COc1nc(NCCc2ccc(OC(F)(F)F)cc2)cc(N2CCCC(C(=O)NS(C)(=O)=O)C2)n1 (stereo not shown) [Example 10, N-(1-{2-Methoxy-6-[2-(4-trifluoromethoxy-phenyl)-ethylamino]-pyrimidin-4-yl}-piperidine-3-carbonyl)-methanesulfonamide]
0.5	COc1nc(NCCc2ccc(Cl)cc2Cl)cc(N2CCCC(CC(=O)O)C2)n1 (stereo not shown) [Example 8, (1-{6-[2-(2,4-Dichloro-phenyl)-ethylamino]-2-methoxy-pyrimidin-4-yl}-piperidin-3-yl)-acetic acid]
730	COc1nc(NCCc2ccc(Cl)cc2Cl)cc(-c2cc(C(C)(C)O)cc(C(C)(C)O)c2)n1 [Example 3, 2-[3-{6-[2-(2,4-Dichloro-phenyl)-ethylamino]-2-methoxy-pyrimidin-4-yl}-5-(1-hydroxy-1-methyl-ethyl)-phenyl]-propan-2-ol]
383	COc1nc(NCCc2ccc(Cl)cc2Cl)cc(-c2cccc(C(C)(C)C(=O)N3CCSCC3)c2)n1 [Example 7(c), 2-(3-{6-[2-(2,4-Dichloro-phenyl)-ethylamino]-2-methoxy-pyrimidin-4-yl}-phenyl)-2-methyl-1-thiomorpholin-4-yl-propan-1-one]

From patent US20090036469A1, “2,6-SUBSTITUTED-4-MONOSUBSTITUTED AMINO-PYRIMIDINE AS PROSTAGLANDIN D2 RECEPTOR ANTAGONISTS” (SANOFI-AVENTIS, priority 2006, published 2009)
